{"source": "patent US6723702B2", "about": "“Use of relaxin treat diseases related to vasoconstriction” (RAS Medical, Inc., priority 2000, dated 2004)", "key": {"[1]": {"test_system": "human VEGF165, VEGF121, bFGF and HGF transcripts in human cardiac cells", "assay": "Human cardiac cells: quantitative RT-PCR after relaxin treatment in vitro", "assay_type": "cell-based", "text": "Oligonucleotides were designed to rat or human bFGF, human VEGF165 amino acid or 121 amino acid isoforms, and their respective rat homologues (VEGF164 and VEGF120), and human HGF (for use with the PE Applied Biosystems “GeneAmp PCR System 9600”). Rat and human GAPDH primers and probes were purchased from BioSource International Inc. and PE Applied Biosystems, respectively. Tissue samples and monolayer cells were suspended in RNA STAT-60 (Tel-Test, Inc., Friendswood, Tex.) and processed following vendor instructions. Reverse transcription-polymerase chain reaction (RT-PCR) was performed using either rat or human total RNA as template. 150 ng of total RNA was used for the analysis of VEGF, bFGF and HGF mRNA expression; 10 ng of total RNA was used for GAPDH mRNA expression. Reverse transcription-polymerase chain reaction (RT-PCR) reagents were purchased from PE Biosystems (Foster City, Calif.).\n(§1) To determine if the effects of relaxin observed in the rat were also seen in human cells, total RNA from cardiac cells was extracted following treatment of cells with 1, 10, and 100 ng/ml relaxin for 24 hours. Human cardiac cells were cultured for 24 hours either without or with relaxin (1-100 ng/ml). Untreated cells were incubated for the same 24 hour period under hypoxic (2% O2) conditions. Using 150 ng of total RNA for human VEGF and bFGF transcripts and 10 ng of total RNA for GAPDH transcripts, primer/probe sets were used to generate RT-PCR products for human VEGF 165aa and 121aa isoforns and human bFGF. Data were analyzed using Sequence Detector v1.6.3 software (Applied Biosystems/PE). VEGF and bFGF expression levels are graphed relative to GAPDH transcript levels. Data are shown as means±SEM, where n=3 per treatment group; *p<0.05; Student-Newman-Keuls test. […] Absolute baseline levels of bFGF mRNA transcripts expressed by these cells were approximately 2-fold greater than those of either the VEGF121 or the VEGF165 isoforms. Total RNA from cells incubated under hypoxic conditions was analyzed as a positive control for the stimulation of VEGF isoforms. As predicted, mRNA transcript levels for both VEGF isoforms increased 220% over untreated control levels following 24 hr exposure to hypoxia, as shown in FIG. 6. bFGF expression was not induced by hypoxia. […] Relaxin had no effect on cellular proliferation, as assessed by ^3H-thymidine incorporation, on cellular morphology, or on desmin or vimentin staining patterns."}, "[2]": {"test_system": "bFGF protein expression in human cardiac cells", "assay": "Immunocytochemistry of human cardiac cell cultures", "assay_type": "cell-based", "details": "10 and 100 ng/ml for 24 hours", "procedure": "Human cardiac cell cultures untreated or treated for 24 hr with 1, 10, and 100 ng/ml of relaxin were analyzed for VEGF and bFGF protein expression by immunocytochemistry. Human cardiac cells were seeded in two chamber slides at 150,000 cells per chamber 24 hours prior to treatment with relaxin. Cells were incubated without or with 10 or 100 ng/ml relaxin for 24 hours. Cells were washed with PBS and fixed with sequential treatment of 4% paraformaldehyde for 10 minutes, ice-cold acetone for 1 minute and ice-cold methanol for 1 minute before air-drying. Slides were then processed as outlined for rat heart sections with the additional use of monoclonal antibodies against vimentin or desmin (Santa Cruz Biotechnology). Cells being analyzed for bFGF expression were stained using the protocol outlined by Vector Laboratories “Vectastain Elite ABC” kit (Vector Labs.), the only deviation from the standard protocol being a 1 hour instead of a 30 minutes primary antibody incubation step. Untreated cells stained diffusely and uniformly for bFGF. Nearly 100% of all cells stained more intensely for bFGF expression following treatment with 10 and 100 ng/ml of relaxin for 24 hours."}, "human cardiac cells": {"test_system": "human cardiac cells", "assay": "Cellular proliferation by 3H-thymidine incorporation in cardiac cells", "assay_type": "cell-based", "procedure": "as §1, with “isoforms.” for “isoforms. As predicted, mRNA transcript levels for both VEGF isoforms increased 220% over untreated control levels following 24 hr exposure to hypoxia, as shown in FIG. 6. bFGF expression was not induced by hypoxia.”"}, "[3]": {"assay": "Relaxin ELISA in serum (Example 5)", "assay_type": "in vivo, rat", "details": "day 10", "text": "The pulmonary artery trunk, right and left extrapulmonary branches were removed en bloc, cleaned of surrounding tissue, and weighed. The left lung was and excised and the entire hilar artery dissected from parenchyma and weighed (Tozzi et al. (1994) Am. J. Respir. Crit. Care Med. 149:1316-1326). Segments were hydrolyzed, and total hydroxyproline and protein determined (Poiani et al. (1990) Circ. Res. 66:968-978). Approximately 3 cc of whole blood was centrifuged, serum aspirated, and sample frozen at −20° C. for determination of rRlx levels by ELISA assay.\nLevels of relaxin in serum were measured in a quantitative sandwich immunoassay, as previously described (Unemori et al. (1996) J. Clin. Invest. 98:2739-2745)."}, "endothelial cells": {"test_system": "endothelial cells", "assay": "Other aspects of endothelial cell phenotype (collagen, metalloproteinase/TIMP-1, invasion, tube formation, chemotaxis)", "assay_type": "cell-based", "procedure": "Relaxin was then assayed for the ability to induce proliferation of endothelial cells directly. Relaxin's potential mitogenic effect was tested on human primary umbilical vein, aortic, foreskin, and pulmonary endothelial cells, as well as rat aortic endothelial cells. […] Alterations in other aspects of endothelial cell phenotype that are believed to correlate with angiogenesis were also tested. Relaxin had no effect on collagen expression, judged by SDS-PAGE of ^3H-proline-labeled cellular proteins; or metalloproteinase or tissue inhibitor of metalloproteinase-1 secretion, assessed by gelatin zymography. […] Therefore, relaxin had no apparent effect directly on endothelial cells."}}}
{"substance": "rhRLX: recombinant human relaxin, identical in amino acid sequence to the product of the human H2 gene; A chain of 24, B chain of 29 amino acids", "values": [{"measurement": "Basic FGF expression, maximum elevation over baseline", "setting": "[1]; 100 ng/ml, 24 hours", "value": 2.2, "unit": "fold"}, {"measurement": "VEGF121 mRNA, maximum increase in expression over untreated controls", "setting": "[1]; 100 ng/ml, 24 hours", "value": 3, "unit": "fold"}, {"measurement": "VEGF165 mRNA, maximum increase in expression over untreated controls", "setting": "[1]; 100 ng/ml, 24 hours", "value": 2.3, "unit": "fold"}, {"measurement": "Transcripts for human HGF", "setting": "[1]; untreated vs relaxin treated cells", "value": "no difference in expression"}, {"measurement": "cells stained more intensely for bFGF expression", "setting": "[2]", "value": "~100", "unit": "%"}, {"measurement": "cellular proliferation, 3H-thymidine incorporation", "setting": "human cardiac cells", "value": "no effect"}, {"measurement": "rRlx serum levels", "setting": "[3]; 1 mg-air (low rhRlx-air)", "value": "2.9 ± 1.0", "unit": "ng/mL"}, {"measurement": "rRlx serum levels", "setting": "[3]; 1 mg-hyp (low rhRlx-hyp)", "value": "3.2 ± 0.4", "unit": "ng/mL"}, {"measurement": "rRlx serum levels", "setting": "[3]; 5 mg-air (hi rhRlx-air)", "value": "9.9 ± 2.8", "unit": "ng/mL"}, {"measurement": "rRlx serum levels", "setting": "[3]; 5 mg-hyp (hi rhRlx-hyp)", "value": "11.5 ± 2.5", "unit": "ng/mL"}, {"measurement": "chemotaxis in vitro", "setting": "endothelial cells", "value": "nor did it induce chemotaxis"}, {"measurement": "collagen expression", "setting": "endothelial cells; SDS-PAGE of 3H-proline-labeled cellular proteins", "value": "no effect"}, {"measurement": "ability of endothelial cells to invade the substrate or to form tube structures", "setting": "endothelial cells; Type I collagen or Matrigel substrate", "value": "no effect"}, {"measurement": "metalloproteinase or tissue inhibitor of metalloproteinase-1 secretion", "setting": "endothelial cells; gelatin zymography", "value": "no effect"}]}
